Results taken from patent US4599337A, “Antiphlogistic/antipyretic/analgesic agents containing theobromine or theophylline derivatives as active ingredient” (Eisai Co., Ltd., priority 1985, dated 1986).
Like-named read-outs stand apart in the source and are kept apart here.

Columns and labels:
SD male rats [1] = assay: Antipyretic activity, dry yeast-induced fever; assay type: in vivo, rat (SD male); details: Rattus norvegicus, po, p.o.
Method: A 2% suspension of dry yeast was injected subcutaneously to SD male rats of 250 to 300 g body weight in an amount of 2 ml/animal to cause a fever, and 4 hours later, the compounds of this invention and control drugs were administered orally. The rectal temperature of each rat was measured periodically, and the dosage of each compound required to reduce the fever by more than 1° C. at the peak of its activity was determined.

Wistar rats = assay: Antiphlogistic activity, carrageenin paw edema; assay type: in vivo, rat (Wistar); details: Rattus norvegicus, po, 3 h
Method: Each test compound of this invention was administered orally to Wistar rats of about 300 g body weight, and 30 minutes later 0.05 ml of a 1% carrageenin solution was injected into a paw of each rat.

Acute toxicity in rats = assay: Acute toxicity in rats; parameters: species or system rat (SD male); details: rat, in vivo, po
Method: (§1) Ten mice were used for each dose and morality was determined for 3 days after administration of each test compound of the invention. In the case of the rats, 5 rats were used for each dose and morality was determined 7 days after administrations.

Acute toxicity in mice = assay: Acute toxicity in mice; parameters: species or system mouse (ddy male); details: mouse, in vivo, po
Method: as §1

ddy-strain male mice = assay: Analgesic activity, acetic acid writhing method; assay type: in vivo, mouse (ddy-strain male); details: p.o.; for Analgesic activity ED50: acetic acid writhing
Method: (a) Acetic acid writhing method^1
A 0.7% acetic acid solution was injected intraperitoneally to ddy-strain male mice (20 to 25 g) in an amount of 0.1 ml per 10 g mouse body weight to cause a writhing syndrome typified by stretching of the hind legs. The inhibitory action of each test compound against said symptom was observed as a measure of the analgesic activity of the compound. In the tests, each of the compounds of this invention and each of the control drugs listed below were administered orally to each test animal, and 50 minutes later said acetic acid solution was injected in the manner described above and the total number of typical writhes was determined over a period of 15 minutes.

SD male rats [2] = details: p.o., given in Japan National Formulary, 6th Ed. (1982), 10080 min, cited from earlier work
ddy male mice = details: p.o., given in Japan National Formulary, 6th Ed. (1982), 4320 min, cited from earlier work
SD male rats [3] = assay: Analgesic activity, bradykinin-induced pain response; assay type: in vivo, rat (SD male); details: p.o.; for Safety margin (LD50 /ED50): Table 2, rats; for Analgesic activity ED50 / Saftety margin (LD50 /ED50): Table 4, rats
Method: (b) Bradykinin-induced pain response^3,4
A polyethylene tube was inserted into a common right carotid artery of SD male rats (250 to 350 g) and 0.5 microngram per 0.1 ml of bradykinin was injected into the artery through said tube. Response induced by bradykinin such as flexin of the right forelimb, dextro-rotation of the head and rearing were considered as being indices of pain response, and the analgesic action of each test compound was determined by observing its inhibition of responses such symptoms.

[4] = rats, read-out: effective dose ED for reducing the fever by more than 1° C. at the peak of its activity
[5] = Table 5, rats, read-out: ED (effective dose for reducing the fever by more than 1° C. when the compound action is at the peak)

Work on `Cn1cnc2c1c(=O)n(CCCN1CCN(c3ccc(Cl)c(Cl)c3)CC1)c(=O)n2C` [Compound A', 1-(3-(4-(3,4-dichlorophenyl)piperazinyl-(1))-n-propyl)theobromine] yielded an ED (fever reduced by more than 1 degC) (SD male rats [1]; [4]) of 40 mg/kg and an ED30 (Wistar rats; Table 7, rats) of 25 mg/kg.
For `Cn1c(=O)c2c(ncn2CCCCN2CCN(c3ccc(F)cc3)CC2)n(C)c1=O` [Compound A], the LD50 at 168 h (Acute toxicity in rats; Table 2, rats) was 353 to 500 mg/kg, the ED (fever reduced by more than 1 degC) (SD male rats [1]; [5]) was 10 mg/kg and the ED30 (Wistar rats; Table 6, rats) was 10 mg/kg. For the same compound, the LD50 at 72 h (Acute toxicity in mice; Table 1, mice) was 344 mg/kg.
Compound `Cc1cccc(N2CCN(CCn3c(=O)c4c(ncn4C)n(C)c3=O)CC2)c1C` [Compound B', 1-(2-(4-(2,3-dimethylphenyl)piperazinyl-(1))-ethyl)theobromine.2HCl] has an LD50 at 168 h (Acute toxicity in rats; Table 4, rats) of no less than 2000 mg/kg and an LD50 at 72 h (Acute toxicity in mice; Table 3, mice) of 600 mg/kg.
Compound `Cn1c(=O)c2c(ncn2CCCCCN2CCN(c3ccc(Cl)cc3)CC2)n(C)c1=O` [Compound B] has an LD50 at 168 h (Acute toxicity in rats; Table 2, rats) of 353 to 500 mg/kg, an ED (fever reduced by more than 1 degC) (SD male rats [1]; [5]) of 40 mg/kg and an ED30 (Wistar rats; Table 6, rats) of 50 mg/kg. For the same compound, the LD50 at 72 h (Acute toxicity in mice; Table 1, mice) was 704 mg/kg.
Compound `Cn1cnc2c1c(=O)n(CCCN1CCN(c3ccccc3Cl)CC1)c(=O)n2C` [Compound C', 1-(3-(4-o-chlorophenylpiperazinyl-(1))-n-propyl)theobromine.2HCl] has an ED30 (Wistar rats; Table 7, rats) of 10 mg/kg and an LD50 at 72 h (Acute toxicity in mice; Table 3, mice) of 200 mg/kg.
With `Cc1ccc(N2CCN(CCCn3cnc4c3c(=O)n(C)c(=O)n4C)CC2)cc1C` [Compound C] the LD50 at 168 h (Acute toxicity in rats; Table 2, rats) was 770 mg/kg, the ED (fever reduced by more than 1 degC) (SD male rats [1]; [5]) was 10 mg/kg and the LD50 at 72 h (Acute toxicity in mice; Table 1, mice) was no less than 800 mg/kg.
`COc1ccccc1N1CCN(CCCCn2c(=O)c3c(ncn3C)n(C)c2=O)CC1` [Compound D', 1-(4-(4-o-methoxyphenylpiperazinyl-(1))-n-butyl)theobromine.2HCl] gave an LD50 at 72 h (Acute toxicity in mice; Table 3, mice) of 400 to 800 mg/kg.
Work on `Cn1c(=O)c2c(ncn2CCCCN2CCN(c3ccc(Cl)cc3)CC2)n(C)c1=O` [Compound D] yielded an LD50 at 168 h (Acute toxicity in rats; Table 2, rats) of 505 mg/kg, an ED (fever reduced by more than 1 degC) (SD male rats [1]; [5]) of 40 mg/kg and an ED30 (Wistar rats; Table 6, rats) of 25 mg/kg. It also gave an LD50 at 72 h (Acute toxicity in mice; Table 1, mice) of 575 mg/kg.
With `Cn1cnc2c1c(=O)n(CCCCN1CCN(c3ccc(F)cc3)CC1)c(=O)n2C` [Compound E', 1-(4-(4-p-fluoropenylpiperazinyl-(1))-n-butyl)theobromine.2HCl] the ED30 (Wistar rats; Table 7, rats) was 25 mg/kg and the LD50 at 72 h (Acute toxicity in mice; Table 3, mice) was 200 mg/kg.
`Cn1cnc2c1c(=O)n(CCCCN1CCN(c3ccc(Cl)c(Cl)c3)CC1)c(=O)n2C` [Compound F', 1-(4-(4-(3,4-dichlorophenyl)piperazinyl-(1))-n-butyl)theobromine.2HCl] showed an LD50 at 72 h (Acute toxicity in mice; Table 3, mice) of 400 to 800 mg/kg.
Work on `Cn1c(=O)c2c(ncn2CCCCCN2CCN(c3cccc(C(F)(F)F)c3)CC2)n(C)c1=O` [Compound F] yielded an LD50 at 168 h (Acute toxicity in rats; Table 2, rats) of 660 mg/kg, an ED (fever reduced by more than 1 degC) (SD male rats [1]; [5]) of 10 mg/kg and an ED30 (Wistar rats; Table 6, rats) of 25 mg/kg. For the same compound, the LD50 at 72 h (Acute toxicity in mice; Table 1, mice) was no less than 800 mg/kg.
In the case of `Cc1cccc(N2CCN(CCCCCn3c(=O)c4c(ncn4C)n(C)c3=O)CC2)c1` [Compound G', 1-(5-(4-m-methylphenylpiperazinyl-(1))-n-pentyl)theobromine.2HCl], the “Safety margin (LD50 /ED50)” value (ddy-strain male mice; Table 3, mice) is reported as 22, the ED30 (Wistar rats; Table 7, rats) is reported as 25 mg/kg and the LD50 at 72 h (Acute toxicity in mice; Table 3, mice) is reported as 300 mg/kg.
In the case of `COc1cc(C)nc(-n2nc(C)cc2OC)n1` [Control drug I, 4-methoxy-2-(5-methoxy-3-methylpyrazol-1-yl)-6-methylpyrimidine], the “Acute toxicity LD50” value (SD male rats [2]; Table 2, rats) is listed as 526 mg/kg, the “Acute toxicity LD50” value (SD male rats [2]; Table 4, rats) is listed as 526 mg/kg and the ED (fever reduced by more than 1 degC) (SD male rats [1]; [4]) is listed as 40 mg/kg. The ED (fever reduced by more than 1 degC) (SD male rats [1]; [5]) was 40 mg/kg, the “Acute toxicity LD50” value (ddy male mice; Table 1, mice) was 1,022 mg/kg and the “Acute toxicity LD50” value (ddy male mice; Table 3, mice) was 1022 mg/kg. For the same compound, the “Safety margin (LD50 /ED50)” value (ddy-strain male mice; Table 1, mice) was 4.3, the “Safety margin (LD50 /ED50)” value (ddy-strain male mice; Table 3, mice) was 4.3 and the “Analgesic activity ED50” value (ddy-strain male mice; Table 3, mice) was 240 mg/kg. For the same compound, the “Safety margin (LD50 /ED50)” value (SD male rats [3]) was no more than 3, the “Analgesic activity ED50” value (SD male rats [3]) was no less than 160 mg/kg and the “Saftety margin (LD50 /ED50)” value (SD male rats [3]) was no more than 3.
In the case of `O=C(Cn1c(=O)sc2ccc(Cl)cc21)N1CCN(CCO)CC1` [Control drug II, 4-((5-chloro-2-oxo-3(2H)-benzothiazolyl)acetyl)-1-piperazineethanol], the ED (fever reduced by more than 1 degC) (SD male rats [1]; [4]) is given as 40 mg/kg, the ED (fever reduced by more than 1 degC) (SD male rats [1]; [5]) is given as 40 mg/kg and the “Acute toxicity LD50” value (ddy male mice; Table 1, mice) is given as 664 mg/kg. For the same compound, the “Acute toxicity LD50” value (ddy male mice; Table 3, mice) was 564 mg/kg, the “Safety margin (LD50 /ED50)” value (ddy-strain male mice; Table 1, mice) was 8.5 and the “Safety margin (LD50 /ED50)” value (ddy-strain male mice; Table 3, mice) was 8.5. The “Analgesic activity ED50” value (ddy-strain male mice; Table 3, mice) was 66 mg/kg, the “Safety margin (LD50 /ED50)” value (SD male rats [3]) was no more than 23 and the “Analgesic activity ED50” value (SD male rats [3]) was no less than 160 mg/kg. The “Saftety margin (LD50 /ED50)” value (SD male rats [3]) was no more than 23.
For `OC(CN1CCCCC1)c1cc(-c2ccccc2)on1` (centres unmarked) [Control drug III, 3-(1-hydroxy-2-piperadinoethyl)-5-phenyl-isoxazole], the “Acute toxicity LD50” value (SD male rats [2]; Table 2, rats) is listed as 1,978 mg/kg, the “Acute toxicity LD50” value (SD male rats [2]; Table 4, rats) is listed as 1,978 mg/kg and the ED (fever reduced by more than 1 degC) (SD male rats [1]; [4]) is listed as 160 mg/kg. For the same compound, the ED (fever reduced by more than 1 degC) (SD male rats [1]; [5]) was 160 mg/kg, the “Acute toxicity LD50” value (ddy male mice; Table 1, mice) was 612 mg/kg and the “Acute toxicity LD50” value (ddy male mice; Table 3, mice) was 612 mg/kg. For the same compound, the “Safety margin (LD50 /ED50)” value (ddy-strain male mice; Table 1, mice) was 5.1, the “Safety margin (LD50 /ED50)” value (ddy-strain male mice; Table 3, mice) was 5.1 and the “Analgesic activity ED50” value (ddy-strain male mice; Table 3, mice) was 120 mg/kg. For the same compound, the “Safety margin (LD50 /ED50)” value (SD male rats [3]) was 12 and the “Saftety margin (LD50 /ED50)” value (SD male rats [3]) was 12.
